{"source": "paper PMC9014415", "about": "“Repositioning of a Diaminothiazole Series Confirmed to Target the Cyclin-Dependent Kinase CRK12 for Use in the Treatment of African Animal Trypanosomiasis” (Journal of Medicinal Chemistry, 2022)", "key": {"[1]": {"assay": "Ames test for potential genotoxicity"}, "[2]": {"assay": "Mouse liver microsome stability", "assay_type": "in vitro ADME", "settings": "intrinsic clearance", "procedure": "solubility method,5 the long shaking times appear to give solubility values that more closely reflect those made from solid samples (unpublished in-house data).\n2.2 Microsomal stability studies\n(a) Mouse liver microsome stability. These methods have been previously reported.6\n(b) Bovine liver microsome stability. Test compounds (0.5 µM) were incubated with 0.5 mg/mL bovine liver microsomes (Xenotech LLC TM) in 50 mM potassium phosphate buffer, pH7.4 and the reaction initiated upon addition of excess NADPH (8 mg/mL in 50 mM potassium phosphate buffer, pH7.4).\nAliquots (50 µL) of the incubation mixture were taken at time zero, 3, 6, 9, 15 and 30 min then mixed with acetonitrile (100 µL) to stop the reaction. An internal standard was added to all samples, prior to centrifugation (10 min, 1,665 g, RT) to sediment precipitated protein. Reaction plates were then sealed prior to UPLCMSMS analysis using a Quattro Premier XE (Waters corporation, USA).\nXLfit (IDBS, UK) was used to calculate the exponential decay and consequently the rate constant (k) from the ratio of peak area of test compound to internal standard at each timepoint. The rate of intrinsic clearance (CLi) of each test compound was then calculated using the following […]\nCLi(mL/min/g liver) = k x V x microsomal protein yield […]"}, "[3]": {"tested_on": "T. brucei CRK12 (Tb927.11.12310) edited parasites", "assay": "Sensitivity of CRISPR-Cas9-edited CRK12 T. brucei compared to wild-type", "assay_type": "cell-based, Trypanosoma brucei", "description": "Three unbiased and independent approaches converged to identify CRK12 as the likely target of compound 2. Next, we used CRISPR-Cas9 precision base editing to interrogate the role of CRK12-related mutations in resistance.[16] A codon-targeted saturation mutagenesis strategy was used to investigate mutations that could support resistance to compound 2 at positions 482 or 492. This was achieved using repair templates randomized (NNN) in these specific positions. […] These edited parasites were 133-fold less sensitive to compound 2 compared to wild-type parasites. In contrast, several different amino acids (Ile, Gln, Met, and Val) were tolerated in position 492. Each mutation conferred differing levels of resistance to compound 2, for instance, parasites bearing a Gly492Val edit were eightfold more tolerant to the compound than wild-type cells, while a Gly492Gln mutation led to 32-fold resistance (Figure 4B); parasites bearing a Gly492Ile or a Gly492Met edit behaved similarly to parasites bearing a Gly492Gln edit. […] This is most likely explained by the pronounced growth defect associated with all three of our resistant clones (R1–3) that harbor this specific mutation. […]\noverall quality score (QUAL) was >100. Artemis13 was used to analyse chromosome and gene copy number variation (CNV), as well as visualisation of SNPs.\n4.3 RIT-seq screening, Illumina sequencing and analysis\nThe RIT-seq library screening was performed as described previously.14 The RNAi library was maintained with blasticidin (1 µg ml-1) and phleomycin (1 µg ml-1) at a minimum of 2 x 10^7 cells. […]\nReads were mapped to the T. brucei 927 reference genome (v39; TriTrypDB [http://tritrypdb.org/]) using Bowtie 2 software,10 with the following parameter: --very-sensitive-local. Following manipulation with SAMtools11 the alignment files were searched with a custom script to identify reads with the following barcode: GCCTCGCGA.14 The total and barcoded reads were then quantified using the Artemis genome browser.15 […]"}}}
{"smiles": "CC(C)CS(=O)(=O)N[C@H]1CC[C@H](Nc2nc(N)c(C(=O)c3c(F)cccc3F)s2)CC1", "note": "[Compound 1, N-((trans)-4-((4-Amino-5-(2,6-difluorobenzoyl)thiazol-2-yl)amino)cyclohexyl)-2-methylpropane-1-sulfonamide]", "values": [{"measurement": "Ames", "setting": "[1]", "value": "negative"}, {"measurement": "Mouse Microsome Cli", "setting": "[2]", "value": 11, "unit": "mL/min/g"}]}
{"smiles": "CC(C)CS(=O)(=O)N[C@H]1CC[C@H](Nc2nc(N)c(C(=O)c3c(F)cc(CN(C)C)cc3F)s2)CC1", "note": "[Compound 2, N-(trans)-[4-[[4-Amino-5-[4-(dimethylaminomethyl)-2,6-difluoro-benzoyl]thiazol-2-yl]amino]cyclohexyl]-2-methyl-propane-1-sulfonamide]", "values": [{"measurement": "Resistance compared to wild-type", "setting": "[3]; CRK12 Gly492Gln edit", "value": 32, "unit": "fold"}, {"measurement": "Tolerance compared to wild-type", "setting": "[3]; CRK12 Gly492Val edit", "value": "eightfold"}, {"measurement": "Loss of sensitivity compared to wild-type", "setting": "[3]; CRK12 Leu482Phe edit", "value": 133, "unit": "fold"}]}
